Here are results for ten compounds from ChEMBL document CHEMBL1201862, “PubChem BioAssay data set” (2004).

Among the test systems are 786-0; CAKI-1; CCRF-CEM; COLO 205; HCC 2998; HCT-116; K562; LOX IMVI; M14; MCF7; MOLT-4; Malme-3M; NCI-H23; NCI-H460; NCI/ADR-RES; OVCAR-5; SF-539; SK-OV-3; SNB-75.
Common to all, as to test: NCI anticancer screen, dose series, 48 h

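Cells were grown in 96-well plates and exposed to each compound for 48 hours at five concentrations; endpoints were interpolated linearly between bracketing concentrations, or set to the highest concentration if not reached. GI50: concentration for 50% inhibition of growth.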 Calls of active or inactive are those of the source. Cut-off read from the data, not from the text of the source: active = GI50 up to about 1.1 µM and inactive = higher.

Take `NCC(=O)Nc1ccc(Cl)cc1C(=O)c1ccc[nH]1`: the GI50 is > 83.4 µM (inactive) in the assay with 786-0; 78 µM (inactive) with CAKI-1; 3.42 µM (inactive) in the assay with CCRF-CEM; > 86.1 µM (inactive) in the assay with COLO 205; 31.8 µM (inactive) with HCC 2998; 7.64 µM (inactive) in the assay on HCT-116. For the same compound, the GI50 was 10.5 µM (inactive) in the assay on K562; 9.95 µM (inactive) with LOX IMVI; 99.3 µM (inactive) in the assay with M14; 6.31 µM (inactive) in the assay with MCF7; 35.8 µM (inactive) in the assay with MOLT-4; > 56.4 µM (inactive) with Malme-3M. The GI50 in the assay on NCI-H23 is 14.3 µM (inactive); in the assay on NCI-H460 it was 10.4 µM (inactive); in the assay with NCI/ADR-RES, 49 µM (inactive); with OVCAR-5, 55.6 µM (inactive); with SF-539, > 32.8 µM (inactive); in the assay with SK-OV-3, > 100 µM (inactive). The GI50 with SNB-75 is 38.5 µM (inactive).
Take `CC(=O)OCc1ccc(O)c(C=O)c1`: the GI50 with 786-0 is > 100 µM (inactive); in the assay on CAKI-1 it was > 100 µM (inactive); with CCRF-CEM it was 46.3 µM (inactive); in the assay with COLO 205, > 100 µM (inactive); in the assay with HCC 2998 it was > 100 µM (inactive); in the assay on HCT-116 it was 40.4 µM (inactive). The GI50 in the assay on K562 is 73.6 µM (inactive); with LOX IMVI it was > 100 µM (inactive); in the assay on M14, 25.2 µM (inactive); in the assay on MCF7 it was 37.9 µM (inactive); with MOLT-4, 38.3 µM (inactive); in the assay with Malme-3M it was > 100 µM (inactive). Moreover, the GI50 with NCI-H23, in the assay on NCI-H460, in the assay with NCI/ADR-RES, with OVCAR-5, in the assay with SF-539 and in the assay with SK-OV-3 was > 100 µM (inactive) throughout. The GI50 with SNB-75 is > 100 µM (inactive).
Regarding `C=CCNC(=O)NC1=CSC2=NC(=O)C3(NN12)c1ccccc1-c1ccccc13`, the GI50 in the assay on 786-0, in the assay with CAKI-1, in the assay with CCRF-CEM, in the assay on COLO 205, in the assay with HCC 2998 and in the assay on HCT-116 was > 10 µM (inactive) throughout. In addition, the GI50 in the assay on K562, in the assay on LOX IMVI, in the assay with M14, in the assay with MCF7, with MOLT-4 and in the assay on Malme-3M was > 10 µM (inactive) each time. In addition, the GI50 in the assay on NCI-H23, in the assay on NCI-H460, in the assay on NCI/ADR-RES, in the assay with OVCAR-5, in the assay with SF-539 and with SK-OV-3 was > 10 µM (inactive) throughout. In the assay with SNB-75, the GI50 was > 10 µM (inactive).
Regarding `CC(C)(C)CN1[C@@H]2CCCC[C@H]2N(CC(C)(C)C)P1(=O)Cc1ccccc1`, the GI50 in the assay on 786-0 was 15.6 µM (inactive); in the assay on CAKI-1 it was 12.7 µM (inactive); in the assay with CCRF-CEM, 11 µM (inactive); with COLO 205, 10.4 µM (inactive); with HCC 2998 it was 9.14 µM (inactive); with HCT-116 it was 10.2 µM (inactive). The GI50 was 13.6 µM (inactive) in the assay with K562; 15.7 µM (inactive) with LOX IMVI; 13.5 µM (inactive) with M14; 12.8 µM (inactive) with MCF7; 11.5 µM (inactive) in the assay with MOLT-4; 13.5 µM (inactive) in the assay on Malme-3M. Moreover, the GI50 in the assay on NCI-H23 was 13 µM (inactive); with NCI-H460, 13.2 µM (inactive); in the assay on NCI/ADR-RES, 12.1 µM (inactive); with OVCAR-5, 12.7 µM (inactive); in the assay with SF-539, 17.3 µM (inactive); in the assay on SK-OV-3, 15.1 µM (inactive). The GI50 in the assay with SNB-75 was 11.4 µM (inactive).
On to `O=[N+]([O-])/C(Cl)=C(/C(Cl)=C(Cl)Cl)N1CCCCC1`, for which the GI50 is 11.3 µM (inactive) with 786-0; 11.8 µM (inactive) with CAKI-1; 4.73 µM (inactive) in the assay on CCRF-CEM; 10 µM (inactive) in the assay on COLO 205; 15.9 µM (inactive) in the assay with HCC 2998; 6.18 µM (inactive) in the assay on HCT-116. The GI50 in the assay on K562 was 7.64 µM (inactive); with LOX IMVI, 7.33 µM (inactive); in the assay with M14 it was 11.2 µM (inactive); in the assay with MCF7 it was 0.444 µM (active); in the assay with MOLT-4, 3.27 µM (inactive); in the assay on Malme-3M it was 2.7 µM (inactive). For the same compound, the GI50 in the assay with NCI-H23 was 8.49 µM (inactive); in the assay with NCI-H460 it was 18.7 µM (inactive); in the assay on NCI/ADR-RES it was 4.06 µM (inactive); in the assay on OVCAR-5 it was 14.9 µM (inactive); with SF-539, 16.4 µM (inactive); in the assay on SK-OV-3 it was 28.5 µM (inactive). In addition, the GI50 in the assay on SNB-75 was 18.8 µM (inactive).
For `COc1ccc(/C(=N/N=c2[nH]c3ccccc3[nH]2)C(=O)O)cc1`, the GI50 in the assay with 786-0, with CAKI-1, with CCRF-CEM, in the assay with COLO 205, with HCC 2998 and with HCT-116 was > 100 µM (inactive) throughout. The GI50 in the assay with K562, in the assay with LOX IMVI, with M14, with MCF7, in the assay with MOLT-4 and in the assay on Malme-3M was > 100 µM (inactive) throughout. In addition, the GI50 with NCI-H23, with NCI-H460, in the assay on NCI/ADR-RES, in the assay on OVCAR-5, in the assay on SF-539 and with SK-OV-3 was > 100 µM (inactive) throughout. Besides, the GI50 in the assay with SNB-75 is > 100 µM (inactive).
On to `N#CC(c1cc2c(cc1Br)OCO2)N1CCOCC1` (stereo not given), for which the GI50 in the assay on 786-0 was 36.4 µM (inactive); with CAKI-1, > 100 µM (inactive); with CCRF-CEM, 7.26 µM (inactive); in the assay with COLO 205, 64.9 µM (inactive); in the assay with HCC 2998, > 100 µM (inactive); with HCT-116 it was 6.5 µM (inactive). The GI50 with K562 was 3.32 µM (inactive); with LOX IMVI it was 24.5 µM (inactive); in the assay with M14, 20.6 µM (inactive); in the assay on MCF7, 42.3 µM (inactive); in the assay on MOLT-4 it was 27.7 µM (inactive); with Malme-3M, 78.9 µM (inactive). Also, the GI50 in the assay with NCI-H23 was 98.2 µM (inactive); in the assay with NCI-H460 it was > 100 µM (inactive); in the assay with NCI/ADR-RES it was 27.1 µM (inactive); with OVCAR-5, > 100 µM (inactive); in the assay on SF-539, 29.7 µM (inactive); in the assay on SK-OV-3, 73.3 µM (inactive). Further, in the assay on SNB-75, the GI50 is 30.1 µM (inactive).
For the compound `COC(=O)C1CC2(CCC1=O)Cc1ccccc1C2=O` (stereo not given), the GI50 was > 100 µM (inactive) in the assay with 786-0; > 100 µM (inactive) in the assay with CAKI-1; 50.4 µM (inactive) in the assay with CCRF-CEM; > 100 µM (inactive) in the assay with COLO 205; > 100 µM (inactive) in the assay on HCC 2998; 87.7 µM (inactive) in the assay on HCT-116. The GI50 in the assay with K562 was 42.3 µM (inactive); in the assay with LOX IMVI, > 100 µM (inactive); in the assay with M14, > 100 µM (inactive); with MCF7 it was > 100 µM (inactive); with MOLT-4, 48.5 µM (inactive); with Malme-3M, > 100 µM (inactive). Also, the GI50 was > 100 µM (inactive) with NCI-H23; > 100 µM (inactive) in the assay with NCI-H460; 99.5 µM (inactive) in the assay with NCI/ADR-RES; > 100 µM (inactive) in the assay with OVCAR-5; > 100 µM (inactive) with SF-539; > 100 µM (inactive) in the assay with SK-OV-3. Also, the GI50 in the assay with SNB-75 is > 100 µM (inactive).
`OCCOCCO[P+]1(OCCOCCO)n2c3ccc2C(c2ccccc2)=C2C=CC(=N2)C(c2ccccc2)=c2ccc(n21)=C(c1ccccc1)C1=NC(=C3c2ccccc2)C=C1`: the GI50 with 786-0 was 0.179 µM (active); in the assay with CAKI-1, 1.68 µM (inactive); with CCRF-CEM it was 0.0231 µM (active); with COLO 205, 0.0206 µM (active); with HCC 2998 it was 0.0378 µM (active); with HCT-116 it was 0.0836 µM (active). Also, the GI50 in the assay on K562 was < 0.0188 µM (active); in the assay on LOX IMVI, 0.0989 µM (active); with M14, 0.272 µM (active); in the assay on MCF7 it was 0.109 µM (active); in the assay with MOLT-4, 0.0267 µM (active); in the assay with Malme-3M, 0.119 µM (active). Also, the GI50 in the assay with NCI-H23 was 0.105 µM (active); in the assay with NCI-H460, 0.076 µM (active); in the assay on NCI/ADR-RES, 7.14 µM (inactive); in the assay on OVCAR-5 it was 0.525 µM (active); with SF-539 it was 0.188 µM (active); in the assay on SK-OV-3, 0.0859 µM (active). Also, the GI50 in the assay on SNB-75 was 0.0491 µM (active).
For the compound `COc1ccc(/N=C2\C(=O)C3=C(OC(C)(C)CC3)c3ccccc32)cc1`, the GI50 in the assay with 786-0 was 0.971 µM (active); in the assay on CAKI-1, 0.991 µM (active); with CCRF-CEM, 1.48 µM (inactive); in the assay on COLO 205 it was 2.93 µM (inactive); in the assay on HCC 2998 it was 1.51 µM (inactive); with HCT-116 it was 0.499 µM (active). Also, the GI50 with K562 is 0.612 µM (active); in the assay on LOX IMVI, 0.481 µM (active); in the assay on M14, 0.769 µM (active); in the assay with MCF7, 0.9 µM (active); in the assay on MOLT-4 it was 2.11 µM (inactive); in the assay with Malme-3M it was 0.791 µM (active). The GI50 was 1.31 µM (inactive) with NCI-H23; 1.5 µM (inactive) with NCI-H460; 0.802 µM (active) in the assay on NCI/ADR-RES; 2.82 µM (inactive) with OVCAR-5; 0.005 µM (active) with SF-539; 1.53 µM (inactive) with SK-OV-3. Moreover, in the assay on SNB-75, the GI50 is 1.11 µM (active).
